Experimental findings from article PMC4725915, “Ruthenium(II) Complexes with 2-Phenylimidazo[4,5-f][1,10]phenanthroline Derivatives that Strongly Combat Cisplatin-Resistant Tumor Cells” (Scientific Reports, 2016) are described below.

What all share (format): cell-based, human
In data set [1] the test system is cancer cell lines (HeLa, A549, A549R). Description: MTT cytotoxicity, all tested cancer cell lines taken together. Conditions: 48 h, read-out: IC50 toward all the tested cancer cell lines. On the procedure:
Compounds 1–4 were evaluated against three tumor cell lines derived from different tissues, including the cervix (HeLa), lung (A549) and cisplatin-resistant lung (A549R) tissues. For comparison, the cytotoxicity of cisplatin was also evaluated. As a control, the toxicities of the complexes were also tested against the normal human cell line (LO2).
The cytotoxicity of the ruthenium complexes and cisplatin were determined by an MTT assay. Briefly, cells were seeded into 96-well microtiter plates at 1 × 10^4 cells per well and grown overnight at 37 °C in a 5% CO2 incubator; then, different concentrations of the complexes in cell culture medium were added to the cultures. The plates were then incubated in an incubator for 48 h under the same conditions. The stock MTT dye solution (15 μL, 5 mg/mL) was added to each well. After 4 h of incubation, the cultures were removed and 150 μL of DMSO was added to each well. The optical density of each well was measured on a microplate spectrophotometer at a wavelength of 595 nm.

The next data set has as its system A549R cells. Description: Cell uptake study by ICP-MS. To be noted: A549R, 2.0 μM, 12 h. The procedure:
To understand the high sensitivity of cancer cells to Ru(II) complexes, the extent of cellular uptake was investigated with inductively coupled plasma mass spectrometry (ICP-MS) by treating the HeLa, A549, A549R and LO2 cell lines with 2.0 μM concentrations of the Ru(II) complexes and cisplatin for 12 h. […] In this study, the cellular uptake and lipophilicity were distinctly correlated and followed the order: 4 >3 >2 >1. Complex 4 had the best accumulation, but the amount of Ru in LO2 cells was far less than that in the three cancer lines, indicating selective accumulation and improved efficiency for treating cancer. Cisplatin was taken up more efficiently by the sensitive cell line (A549) than by the cisplatin-resistant cell line (A549R). […] However, less than 1.5% of the cellular platinum was accumulated in the mitochondrial fraction of the A549R cells. Therefore, complex 4 could function in a different manner than cisplatin in A549R cells, which would be an appropriate solution to combat cisplatin resistance in tumor cells.
The cells were plated at a density of 1 × 10^5 cells/mL in 10 mL of DMEM for 24 h at 37 °C under 5% CO2 and 20% O2, Ruthenium complexes (2.0 μM) and cisplatin were added to the culture medium and incubated for 12 h, and mixed with cold PBS and a trypsin-EDTA solution in a centrifuge tube for counting. Then, the nuclei and cytoplasm of the cells were extracted by using a Nuclear and Cytoplasmic Protein Extraction Kit (Life Technologies). The samples were digested in 20% HNO3 and 10% H2O2 at room temperature overnight. Each sample was then diluted with Milli-Q water to obtain 2% HNO3 sample solutions. Ruthenium contents were determined using inductively coupled plasma mass spectrometry (ICP-MS Thermo Elemental Co., Ltd.).

The next data set deals with A549R MCTSs. Description: Cytotoxicity test on 3D MCTSs (Cell TiterGlo ATP). To be noted: A549R MCTSs (~400 μm in diameter), 48 h. The procedure: MCTSs were cultured using the liquid overlay method. A549R cells in the exponential growth phase were dissociated by a trypsin/EDTA solution to gain single-cell suspensions. A number of 3000 diluted A549R cells were transferred to 1.5% agarose-coated transparent 96-well plates with 200 μL of DMEM containing 10% serum. The single cells formed MCTS aggregates approximately 400 μm in diameter after three days with 5% CO2 and 20% O2 at 37 °C. After formation of the MCTSs, each MCTS in a 96-well plate was imaged with a phase contrast microscope (Zeiss Axio Observer D1, Germany) using 10× objective to monitor their color, integrity, diameter, and volume.
A549R MCTSs (diameters ≈400 μm) were treated by carefully replacing 50% of the medium with drug-supplemented standard medium using an eight-channel pipet. In parallel, 50% of the medium containing solvent was replaced with solvent-free medium for the untreated MCTSs. Three A549R MCTSs were treated per condition and drug concentration; the DMSO volume was less than 1% (v/v). The MCTSs were then allowed to incubate for another 48 h. The cytotoxicities of the Ru(II) complexes toward the MCTSs were measured using ATP concentrations with a Cell TiterGlo kit (Promega). After 30 min of incubation, the MCTSs were carefully transferred into black-sided, flat-bottomed 96-well plates (Corning) and mixed with a pipet for luminescence measurements on an Infinite M200 PRO instrument (TECAN).
On the technique in general: In ATP-based viability assays light output follows the ATP content of the culture.

Regarding Ru(phen)(bzq)(tbtfpip)(PF6) [Complex 4], the values for the concentration for half-maximal inhibition (IC50) (in data set [1]; in the data set on A549R MCTSs) were 800 to 2400 nM and 1800 ± 300 nM, respectively. Besides, in the data set with A549R cells, the “share of the compound taken up by A549R cells” value is “Approximately 8%”.

The term IC50 denotes the concentration that gives 50% inhibition.
